From patent US11850313B2, “Method and compositions for protecting tissue” (The London Health Sciences Centre Research Inc., priority 2019, dated 2023)

Assays:
DCD porcine kidneys [1] = experiment: Ex vivo subnormothermic perfusion of DCD porcine kidneys with Hemopure® at 21° C. followed by blood-free reperfusion at 37° C.; set-up: species or system Pigs; details: for tissue oxygenation during preservation: 21° C., vs SCS (FIG. 4A); for urine output during preservation: 4 h perfusion at 21° C., vs Hemopure® alone (FIG. 3A)
From the text: Pigs weighing 55-65 kg were used for this study. The animals were maintained in accordance with the Committee on the Care and Use of Laboratory Animals appointed by the National Research Council. The animals were housed at the animal facility in the West Valley Building, which is managed by the Animal Care and Veterinary Services Department at The University of Western Ontario. The experimental protocol and housing conditions followed the guidelines of the university's Animal Care Committee and the Canadian Council on Animal Care.
(§1) Pigs were tranquilized prior to transport to the Canadian Surgical Technologies & Advanced Robotics facility (CSTAR, University Hospital, London, Canada). Upon arrival at CSTAR, the animals were prepared for surgery as per SOP. A midline incision was used to expose the kidneys. The right and left kidneys with their ureters were dissected free from the retro peritoneum while leaving the blood supply to the ureter intact and then the ureter was divided. The renal vascular pedicles were left as long as possible by freeing the renal artery and vein up to the aorta and vena cava. The pedicles were clamped for 30 minutes to induce warm ischemia in the donor organs following intravenous infusion of 10000 units of heparin. The injury inflicted is likely greater than that of conventional DCD kidneys after withdrawal of life support as the blood supply is cutoff completely by clamping, which is more harmful than the gradual ischemic injury that occurs during cardiac death. Subsequently, nephrectomies of the left and right kidney were performed and the donor animal was euthanized. All the surgeries were performed by transplant fellows at University Hospital, London, Ontario, Canada.
The kidneys were randomly assigned to one of five preservation treatments. The first group of kidneys were flushed with and stored in HTK solution on ice for 4 h (SCS), which reflects the current clinical standard of care for organ preservation. The second group of kidneys were flushed with HTK solution and treated to 4 h of subnormothermic perfusion at 21° C. with Hemopure®. The third group of kidneys were flushed with HTK solution supplemented with 200 nM AP39 and treated to 4 h of subnormothermic perfusion at 21° C. with Hemopure® supplemented with 200 nM AP39. The fourth group of kidneys were flushed with HTK solution supplemented with 1 μM AP39 and treated to 4 h of subnormothermic perfusion at 21° C. with Hemopure® supplemented with 1 μM AP39. The fifth group of kidneys were flushed with HTK solution supplemented with 150 μM STS and treated to 4 h of subnormothermic perfusion at 21° C. with Hemopure® supplemented with 150 μM STS. After the 4 h preservation period, all kidneys were perfused with Hemopure® for 4 h at 37° C. with nutrients to simulate reperfusion after renal transplantation. The kidneys were perfused using an ex vivo perfusion apparatus (FIG. 4). The perfusion pressure was maintained at 50 mmHg. Hemopure® samples were analyzed hourly. The perfusate was oxygenated using an external mixed air supply (35% O2, 2 L/min). After reperfusion with stressed blood, kidneys were bivalved sagittally. One half was stored at −80° C. for mechanistic analyses and the other half was stored in formalin for histopathological analyses.
Hemopure® and urine samples were collected hourly during the 4 h preservation perfusion and during the 4 h reperfusion to evaluate graft function over time. Electrolyte levels, lactate levels and gas levels in the perfusate were measured hourly using the iSTAT point-of-care testing system. Hourly urine output was recorded, and total urine samples were also collected from both perfusion periods. Pictures of the kidney, urine bags and flow and pressure readings were taken hourly. Tissue oxygenation was also measured hourly. During both perfusion periods, we closely monitored pump parameters (flow and pressure) to ensure optimal graft function. […]

DCD porcine kidneys [2] = experiment: Ex vivo perfusion of DCD porcine kidneys with autologous blood (SMP/NMP), then reperfusion with stressed blood at 37° C.; set-up: species or system Pigs
Method: as §1, with “3000” for “10000”, “All the surgeries were performed by transplant fellows at University Hospital, London, Ontario, Canada.” left out
The kidneys were randomly assigned to one of four preservation treatments. […] Blood, urine and tissue samples were collected and analyzed as described in the next subsection.
Blood and urine samples were collected hourly during the 4 h preservation perfusion with non-stressed blood and during the 4 h reperfusion with stressed blood to evaluate graft function over time. Hourly urine output was recorded, and total urine samples were also collected from both perfusion periods. Pictures of the kidney, urine bags and blood flow and pressure readings were taken hourly. […] During the perfusion periods, we closely monitored pump parameters (flow and pressure) to ensure optimal graft function. […] The total TUNEL+ area (%) was quantified for 10 random fields of view for 2 kidney samples per treatment group using ImageJ software v 1.50 (National Institutes of Health, USA). The total tubular area and TUNEL+ tubular area, used to calculate the TUNEL+ area (%), were determined by adjusting the brightness and saturation thresholds. […]

donor kidneys = experiment: Static cold storage (4° C.) of donor kidneys in UW solution supplemented with AP39; details: AP39 added to UW / cold preservation solution, applicant's earlier work
[3] = test system: oxidatively stressed endothelial cells; details: including protection against oxidative mitochondrial DNA damage; cited from earlier work
kidney = details: AP39 supplementation of UW solution, 21° C.; cited from earlier work
[4] = 500 ppm; cited from earlier work

O=C(CCCCCCCCC[P+](c1ccccc1)(c1ccccc1)c1ccccc1)Oc1ccc(-c2cc(=S)ss2)cc1.[Br-] [AP39]
tissue oxygenation during preservation (DCD porcine kidneys [1]; 200 nM AP39 in Hemopure®): higher tissue oxygenation than SCS
urine output during preservation (DCD porcine kidneys [1]; 200 nM AP39 in Hemopure®): significantly higher
apoptotic tissue injury (TUNEL score) (DCD porcine kidneys [1]; 200 nM AP39 in Hemopure®, after reperfusion, vs Hemopure® and Hemopure®+1 μM AP39 (FIGS. 6A-6F)): reduced apoptotic tissue injury
urine output during preservation (DCD porcine kidneys [1]; 1 μM AP39 in Hemopure®): significantly higher
urine output during reperfusion (DCD porcine kidneys [1]; preserved with 200 nM AP39 in Hemopure® at 21° C., 4 h reperfusion at 37° C., vs Hemopure® kidneys (FIG. 3B)): significantly higher
urine output during 4 h of preservation (DCD porcine kidneys [2]; 200 nM AP39 in non-stressed blood at 21° C. (SMP-AP39-21C), vs SMP-21C and NMP-37C (FIG. 9A)): significantly higher
graft function (DCD porcine kidneys [2]; AP39-supplemented blood at 21° C., vs cold storage in UW and perfusion with only blood at 21° C. and 37° C.): improves graft function
urine output during 4 h of reperfusion with stressed blood (DCD porcine kidneys [2]; preserved with SMP-AP39-21C, vs SCS-4C, SMP-21C, NMP-37C (FIG. 9B)): significantly higher
graft outcomes (donor kidneys): improves renal graft outcomes
protective effect under oxidative stress conditions [3]: cryoprotective effect
kidney preservation (kidney): improves kidney preservation

S [H2S, Hydrogen sulfide]
effect of exposure to extreme levels [4]: sudden collapse and unconsciousness

O.O.O.O.O.O=S([O-])([O-])=S.[Na+].[Na+] [STS, sodium thiosulfate (STS) pentahydrate]
tissue oxygenation during preservation (DCD porcine kidneys [1]; 150 μM STS in Hemopure®): higher tissue oxygenation than SCS
urine output during preservation (DCD porcine kidneys [1]; 150 μM STS in Hemopure®): significantly higher
